Measurements published in US9775351B2, “Ternary fungicidal and pesticidal mixtures” (BAYER CROPSCIENCE AG, priority 2012, dated 2017).

Test system: Rhizoctonia solani
Assay: Rhizoctonia test (cotton)/seed treatment
Assay type: in vivo
Settings: greenhouse, 7 days at 20° C
Method: Rhizoctonia Test (Cotton)/Seed Treatment
The test is performed under greenhouse conditions.
Commercially available disease control agents, active compounds solved in N-methyl-2-pyrrolidon, or combinations thereof were diluted with water to the desired dosages. Cotton seeds were treated with this preparations and sown in 6*6 cm pots containing 4 cm of a 1:1 mix of steamed field soil and sand, mixed with a perlite-culture of Rhizoctonia solani.
Pots were incubated in the greenhouse for 7 days at 20° C.
Assessment consisted of counting of emerged seedlings and diseased plants. 0% means an efficacy which corresponds to that of the untreated control, while an efficacy of 100% means that all seedlings have emerged and are healthy.

**Q.** For `CC1CC(C)(C)c2cccc(NC(=O)c3cn(C)nc3C(F)F)c21` (stereo not drawn) [(I-1), 3-(difluoromethyl)-1-methyl-N-(1,1,3-trimethyl-2,3-dihydro-1H-inden-4-yl)-1H-pyrazole-4-carboxamide], which Efficacy in % (application rate 10 g a.i./dt) is on record?
**A.** 41%

**Q.** For `CN/C(=N\[N+](=O)[O-])NCc1cnc(Cl)s1` [clothianidin], which Efficacy in % (application rate 12 g a.i./dt) is on record?
**A.** 24%

**Q.** Which Efficacy in % (application rate 1 g a.i./dt) does the source give for `COCC(=O)N(c1c(C)cccc1C)C(C)C(=O)OC` (stereo not drawn) [metalaxyl] here?
**A.** 12%
